Reference: US12240838B2, “Inhibiting agents for Bruton's tyrosine kinase” (BIOGEN MA INC., priority 2019, dated 2025)

Columns and labels:
BTK [1] = target: T1, BTK (Homo sapiens (Human), UniProt Q06187); experiment: In Vitro BTK Kinase Assay: BTK-POLYGAT-LS ASSAY; assay type: biochemical; conditions: ATP 10 μM, polyGAT 100 nM, BTK 0.25 nM, 30 minutes
Procedure: The purpose of the BTK in vitro assay is to determine compound potency against BTK through the measurement of IC50. […] The BTK kinase reaction was done in a black 96 well plate (costar 3694). For a typical assay, a 24 μL aliquot of a ATP/peptide master mix (final concentration; ATP 10 μM, polyGAT 100 nM) in kinase buffer (10 mM Tris-HCl pH 7.5, 10 mM MgCl2, 200 μM […], 5 mM DTT, 0.01% Triton X-100, and 0.2 mg/ml casein) is added to each well. Next, […] of a 4-fold, 40× compound titration in 100% DMSO solvent is added, followed by adding 15 μL of BTK enzyme mix in 1× kinase buffer (with a final concentration of 0.25 nM). The assay is incubated for 30 minutes before being stopped with […] of a 50 mM EDTA solution. Aliquots (5 μL) of the kinase reaction are transferred to a low volume white 384 well plate (Coming 3674), and […] of a 2× detection buffer (Invitrogen PV3574, with 4 nM Tb-PY20 antibody, Invitrogen PV3552) is added. The plate is covered and incubated for 45 minutes at room temperature. Time resolved fluorescence (TRF) on Molecular Devices M5 (332 nm excitation; 488 nm emission; 518 nm fluorescein emission) is measured.

BTK [2] = target: T1, BTK; experiment: In Vitro PD Assay in Human Whole Blood (pBTK assay); assay type: cell-based; conditions: 37° C. for 30 min, 50% inhibition of ECL signal
Procedure: Human heparinized venous blood was purchased from Bioreclamation, Inc. or SeraCare Life Sciences and shipped overnight. Whole blood was aliquoted into 96-well plate and “spiked” with serial dilutions of test compound in DMSO or with DMSO without drug. The final concentration of DMSO in all wells was 0.1%. The plate was incubated at 37° C. for 30 min. Lysis buffer containing protease and phosphatase inhibitors was added to the drug-containing samples and one of the DMSO-only samples (+PPi, high control), while lysis buffer containing protease inhibitors was added to the other DMSO-only samples (−PPi, low control). All of the lysed whole blood samples were subjected to the total BTK capture and phosphotyrosine detection method described in US20160311802, incorporated herein by reference.

T1 sequence (Q06187 whole entry): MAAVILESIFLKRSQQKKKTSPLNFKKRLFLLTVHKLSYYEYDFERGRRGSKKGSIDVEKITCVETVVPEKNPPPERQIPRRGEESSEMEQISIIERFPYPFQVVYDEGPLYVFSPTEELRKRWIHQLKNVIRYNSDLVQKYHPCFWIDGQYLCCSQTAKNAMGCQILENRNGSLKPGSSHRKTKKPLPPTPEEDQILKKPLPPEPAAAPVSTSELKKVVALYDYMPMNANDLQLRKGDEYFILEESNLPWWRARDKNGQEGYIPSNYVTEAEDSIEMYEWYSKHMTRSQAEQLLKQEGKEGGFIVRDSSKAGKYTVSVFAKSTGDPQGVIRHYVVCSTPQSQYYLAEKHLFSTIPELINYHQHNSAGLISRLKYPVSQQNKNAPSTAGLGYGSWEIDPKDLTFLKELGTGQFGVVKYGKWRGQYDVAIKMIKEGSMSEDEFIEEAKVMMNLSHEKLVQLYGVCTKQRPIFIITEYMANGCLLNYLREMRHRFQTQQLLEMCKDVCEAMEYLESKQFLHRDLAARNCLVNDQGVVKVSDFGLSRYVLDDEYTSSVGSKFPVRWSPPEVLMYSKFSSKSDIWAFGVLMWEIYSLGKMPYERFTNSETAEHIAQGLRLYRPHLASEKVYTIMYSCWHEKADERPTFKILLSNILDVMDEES

SMILES	IC50 (BTK [1]) [nM]	IC50 (BTK [2]) [nM]
C[C@@H](NC(=O)c1noc(C(C)(C)C)n1)c1ccc(-c2cc(NC(=O)C3CC3)ncc2F)cc1Cl [Compound 22, (R)-5-(tert-butyl)-N-(1-(2-chloro-4-(2-(cyclopropanecarboxamido)-5-fluoropyridin-4-yl)phenyl)ethyl)-1,2,4-oxadiazole-3-carboxamide]	≤ 1	100 to 500
Cc1cc(-c2cc(NC(=O)C3CC3)ncc2C(F)(F)F)ccc1CNC(=O)c1noc(C(C)(C)C)n1 [Compound 26, 5-(tert-butyl)-N-(4-(2-(cyclopropanecarboxamido)-5-(trifluoromethyl)pyridin-4-yl)-2-methylbenzyl)-1,2,4-oxadiazole-3-carboxamide]	1 to 10	> 10000
CC(C)(C)n1cc(F)c(C(=O)NCc2ccc(-c3ccnc(NC(=O)C4CC4)c3)c(F)c2C2CC2)n1 [Compound 29, 1-(tert-butyl)-N-(4-(2-(cyclopropanecarboxamido)pyridin-4-yl)-2-cyclopropyl-3-fluorobenzyl)-4-fluoro-1H-pyrazole-3-carboxamide]	1 to 10	500 to 10000
CC(C)(C)c1ncc(C(=O)NCc2ccc(-c3ccnc(NC(=O)C4CC4)c3)c(F)c2C2CC2)o1 [Compound 30, 2-(tert-butyl)-N-(4-(2-(cyclopropanecarboxamido)pyridin-4-yl)-2-cyclopropyl-3-fluorobenzyl)oxazole-5-carboxamide]	1 to 10	> 10000
Cc1c(CNC(=O)c2nn(C(C)(C)C)cc2F)ccc(-c2ccnc(NC(=O)C3CC3)c2)c1F [Compound 31, 1-(tert-butyl)-N-(4-(2-(cyclopropanecarboxamido)pyridin-4-yl)-3-fluoro-2-methylbenzyl)-4-fluoro-1H-pyrazole-3-carboxamide]	≤ 1	500 to 10000
Cc1c(CNC(=O)c2cnc(C(C)(C)C)o2)ccc(-c2ccnc(NC(=O)C3CC3)c2)c1F [Compound 32, 2-(tert-butyl)-N-(4-(2-(cyclopropanecarboxamido)pyridin-4-yl)-3-fluoro-2-methylbenzyl)oxazole-5-carboxamide]	≤ 1	500 to 10000
CC(C)(C)c1nc(C(=O)NCc2ccc(-c3ccnc(NC(=O)C4CC4)c3)c(F)c2C2CC2)no1 [Compound 33, 5-(tert-butyl)-N-(4-(2-(cyclopropanecarboxamido)pyridin-4-yl)-2-cyclopropyl-3-fluorobenzyl)-1,2,4-oxadiazole-3-carboxamide]	≤ 1	500 to 10000
CC(C)(C)c1noc(C(=O)NCc2ccc(-c3ccnc(NC(=O)C4CC4)c3)c(F)c2C2CC2)n1 [Compound 34, 3-(tert-butyl)-N-(4-(2-(cyclopropanecarboxamido)pyridin-4-yl)-2-cyclopropyl-3-fluorobenzyl)-1,2,4-oxadiazole-5-carboxamide]	≤ 1	500 to 10000
Cc1cc(-c2ccnc(NC(=O)C3CC3)c2)ccc1CNC(=O)c1noc(C(C)(C)CO)n1 [Compound 35, N-(4-(2-(cyclopropanecarboxamido)pyridin-4-yl)-2-methylbenzyl)-5-(1-hydroxy-2-methylpropan-2-yl)-1,2,4-oxadiazole-3-carboxamide]	1 to 10	500 to 10000
Cc1cc(-c2ccnc(NC(=O)C3CC34CCC4)c2)ccc1CNC(=O)c1noc(C(C)(C)C)n1 (stereo not shown) [Compound 36]	1 to 10	> 10000
Cc1cc(-c2ccnc(NC(=O)[C@H]3C[C@@H]3F)c2)ccc1CNC(=O)c1noc(C(C)(C)C)n1 [Compound 37, 5-(tert-butyl)-N-(4-(2-((1R,2S)-2-fluorocyclopropane-1-carboxamido)pyridin-4-yl)-2-methylbenzyl)-1,2,4-oxadiazole-3-carboxamide]	≤ 1	500 to 10000
Cc1cc(-c2ccnc(NC(=O)[C@@H]3C[C@H]3F)c2)ccc1CNC(=O)c1noc(C(C)(C)C)n1 [Compound 38, 5-(tert-butyl)-N-(4-(2-((1S,2R)-2-fluorocyclopropane-1-carboxamido)pyridin-4-yl)-2-methylbenzyl)-1,2,4-oxadiazole-3-carboxamide]	≤ 1	500 to 10000
Cc1cc(-c2ccnc(NC(=O)C3CC3)c2)ccc1CNC(=O)c1nc(C(C)(C)CF)no1 [Compound 39, N-(4-(2-(cyclopropanecarboxamido)pyridin-4-yl)-2-methylbenzyl)-3-(1-fluoro-2-methylpropan-2-yl)-1,2,4-oxadiazole-5-carboxamide]	≤ 1	100 to 500
Cc1cc(-c2ccnc(NC(=O)C3CC3)c2)ccc1CNC(=O)c1noc(C(C)(C)CF)n1 [Compound 41, N-(4-(2-(cyclopropanecarboxamido)pyridin-4-yl)-2-methylbenzyl)-5-(1-fluoro-2-methylpropan-2-yl)-1,2,4-oxadiazole-3-carboxamide]	≤ 1	500 to 10000
CC(C)(C)c1noc(C(=O)N[C@@H]2CCCCc3cc(-c4ccnc(NC(=O)[C@@H]5CC56CCC6)c4)ccc32)n1 [Compound 42, 3-(tert-butyl)-N-((R)-2-(2-((R)-spiro[2.3]hexane-1-carboxamido)pyridin-4-yl)-6,7,8,9-tetrahydro-5H-benzo[7]annulen-5-yl)-1,2,4-oxadiazole-5-carboxamide]	≤ 1	500 to 10000
Cc1cc(-c2ccnc(NC(=O)C3CC3)c2F)ccc1CNC(=O)c1noc(C(C)(C)C)n1 [Compound 44, 5-(tert-butyl)-N-(4-(2-(cyclopropanecarboxamido)-3-fluoropyridin-4-yl)-2-methylbenzyl)-1,2,4-oxadiazole-3-carboxamide]	1 to 10	500 to 10000
CC(C)(C)c1noc(C(=O)N[C@@H]2CCCCc3cc(-c4ccnc(NC(=O)[C@@H]5CC5(C)C)c4)ccc32)n1 [Compound 45, 3-(tert-butyl)-N-((R)-2-(2-((R)-2,2-dimethylcyclopropane-1-carboxamido)pyridin-4-yl)-6,7,8,9-tetrahydro-5H-benzo[7]annulen-5-yl)-1,2,4-oxadiazole-5-carboxamide]	1 to 10	> 10000
CC(C)(C)c1noc(C(=O)N[C@@H]2CCCCc3cc(-c4ccnc(NC(=O)[C@@H]5[C@@H]6COC[C@@H]65)c4)ccc32)n1 [Compound 46, N-((R)-2-(2-((1R,5S,6s)-3-oxabicyclo[3.1.0]hexane-6-carboxamido)pyridin-4-yl)-6,7,8,9-tetrahydro-5H-benzo[7]annulen-5-yl)-3-(tert-butyl)-1,2,4-oxadiazole-5-carboxamide]	≤ 1	500 to 10000
Cc1cc(-c2ccnc(NC(=O)C3CC3(C)C)c2)ccc1CNC(=O)c1noc(C(C)(C)C)n1 (stereo not shown) [Compound 48, 5-(tert-butyl)-N-(4-(2-(2,2-dimethylcyclopropane-1-carboxamido)pyridin-4-yl)-2-methylbenzyl)-1,2,4-oxadiazole-3-carboxamide]	1 to 10	> 10000
Cc1cc(-c2ccnc(NC(=O)C3CC3(F)F)c2)ccc1CNC(=O)c1noc(C(C)(C)C)n1 (stereo not shown) [Compound 49, 5-(tert-butyl)-N-(4-(2-(2,2-difluorocyclopropane-1-carboxamido)pyridin-4-yl)-2-methylbenzyl)-1,2,4-oxadiazole-3-carboxamide]	≤ 1	500 to 10000
